# Experimental data from patent publication US8445492B2, “Method for inhibiting growth of cancer cells and cell telomere and diseases of cell proliferation by using heteroannelated anthraquinone derivative compounds” (National Defense Medical Center, priority 2008, dated 2013).
# Tests used:
# Assay type in all cases: cell-based
# HCT-15 = experiment: NCI DTP in-vitro dose response, Colon Cancer
# SF-268 = experiment: NCI DTP in-vitro dose response, CNS Cancer
# SNB-19 = experiment: NCI DTP in-vitro dose response, CNS Cancer
# U251 = experiment: NCI DTP in-vitro dose response, CNS Cancer
# LOX IMVI = experiment: NCI DTP in-vitro dose response, Melanoma
# SK-MEL-5 = experiment: NCI DTP in-vitro dose response, Melanoma
# UACC-62 [1] = experiment: NCI DTP in-vitro dose response, Melanoma
# OVCAR-4 = experiment: NCI DTP in-vitro dose response, Ovarian Cancer
# OVCAR-5 = experiment: NCI DTP in-vitro dose response, Ovarian Cancer
# OVCAR-8 = experiment: NCI DTP in-vitro dose response, Ovarian Cancer
# 786-0 = experiment: NCI DTP in-vitro dose response, Renal Cancer
# MCF7 = experiment: NCI DTP in-vitro dose response, Breast Cancer
# NCI/ADR-RES = experiment: NCI DTP in-vitro dose response, Breast Cancer
# BT-549 = experiment: NCI DTP in-vitro dose response, Breast Cancer
# T-47D [2] = experiment: NCI DTP in-vitro dose response, Breast Cancer
# HOP-92 = experiment: in vitro test at 1.0×10^−5 M, Non-small cell lung cancer cell; conditions: 1.0×10^−5 molal concentration (M)
# T-47D [3] = experiment: in vitro test at 1.0×10^−5 M, Breast cancer cell; conditions: 1.0×10^−5 molal concentration (M)
# MOLT-4 = experiment: in vitro test at 1.0×10^−5 M, Blood cancer cell; conditions: 1.0×10^−5 molal concentration (M)
# ACHN = experiment: in vitro test at 1.0×10^−5 M, Kidney cancer cell; conditions: 1.0×10^−5 molal concentration (M)
# UO-31 = experiment: in vitro test at 1.0×10^−5 M, Kidney cancer cell; conditions: 1.0×10^−5 molal concentration (M)
# SK-MEL-2 = experiment: in vitro test at 1.0×10^−5 M, Skin cancer cell; conditions: 1.0×10^−5 molal concentration (M)
# UACC-257 = experiment: in vitro test at 1.0×10^−5 M, Skin cancer cell; conditions: 1.0×10^−5 molal concentration (M)
# UACC-62 [4] = experiment: in vitro test at 1.0×10^−5 M, Skin cancer cell; conditions: 1.0×10^−5 molal concentration (M)
structure (smiles),measurement,setting,value
"O=C1c2ccccc2C(=O)c2c1ccc1nsnc21 [No. 22, Anthra[2,1-c][1,2,5]thiadiazole-6,11-dione]",TGI,HCT-15; HCT-15,7.80E−6
same,GI50,"HCT-15; Homo sapiens, HCT-15",2.49 µM
same,CC50,"HCT-15; Homo sapiens, HCT-15, read-out: LC50",90.6 µM
same,Percent Growth,HCT-15; Log10 Concentration −4.0,−52%
same,Percent Growth,HCT-15; Log10 Concentration −5.0,−11%
same,Percent Growth,HCT-15; Log10 Concentration −6.0,90%
same,Percent Growth,HCT-15; Log10 Concentration −7.0,104%
same,Percent Growth,HCT-15; Log10 Concentration −8.0,110%
same,GI50,"SF-268; Homo sapiens, SF-268",3.55 µM
same,CC50,"SF-268; Homo sapiens, SF-268, read-out: LC50",> 100 µM
same,Percent Growth,SF-268; Log10 Concentration −4.0,−46%
same,Percent Growth,SF-268; Log10 Concentration −5.0,17%
same,Percent Growth,SF-268; Log10 Concentration −6.0,90%
same,Percent Growth,SF-268; Log10 Concentration −7.0,98%
same,Percent Growth,SF-268; Log10 Concentration −8.0,101%
same,TGI,SF-268; SF-268,1.87E−5
same,GI50,"SNB-19; Homo sapiens, SNB-19",1.86 µM
same,CC50,"SNB-19; Homo sapiens, SNB-19, read-out: LC50",6.43 µM
same,Percent Growth,SNB-19; Log10 Concentration −4.0,−98%
same,Percent Growth,SNB-19; Log10 Concentration −5.0,−86%
same,Percent Growth,SNB-19; Log10 Concentration −6.0,100%
same,Percent Growth,SNB-19; Log10 Concentration −7.0,101%
same,Percent Growth,SNB-19; Log10 Concentration −8.0,102%
same,TGI,SNB-19; SNB-19,3.46E−6
same,GI50,"U251; Homo sapiens, U-251",1.6 µM
same,CC50,"U251; Homo sapiens, U-251, read-out: LC50",8.32 µM
same,Percent Growth,U251; Log10 Concentration −4.0,−63%
same,Percent Growth,U251; Log10 Concentration −5.0,−61%
same,Percent Growth,U251; Log10 Concentration −6.0,78%
same,Percent Growth,U251; Log10 Concentration −7.0,104%
same,Percent Growth,U251; Log10 Concentration −8.0,106%
same,TGI,U251; U251,3.65E−6
same,GI50,"LOX IMVI; Homo sapiens, LOX IMVI",1.03 µM
same,CC50,"LOX IMVI; Homo sapiens, LOX IMVI, read-out: LC50",> 100 µM
same,TGI,LOX IMVI; LOX IMVI,3.56E−6
same,Percent Growth,LOX IMVI; Log10 Concentration −4.0,−33%
same,Percent Growth,LOX IMVI; Log10 Concentration −5.0,−42%
same,Percent Growth,LOX IMVI; Log10 Concentration −6.0,51%
same,Percent Growth,LOX IMVI; Log10 Concentration −7.0,98%
same,Percent Growth,LOX IMVI; Log10 Concentration −8.0,101%
same,GI50,"SK-MEL-5; Homo sapiens, SK-MEL-5",1.13 µM
same,CC50,"SK-MEL-5; Homo sapiens, SK-MEL-5, read-out: LC50",4.83 µM
same,Percent Growth,SK-MEL-5; Log10 Concentration −4.0,−100%
same,Percent Growth,SK-MEL-5; Log10 Concentration −5.0,−100%
same,Percent Growth,SK-MEL-5; Log10 Concentration −6.0,58%
same,Percent Growth,SK-MEL-5; Log10 Concentration −7.0,85%
same,Percent Growth,SK-MEL-5; Log10 Concentration −8.0,98%
same,TGI,SK-MEL-5; SK-MEL-5,2.34E−6
same,GI50,"UACC-62 [1]; Homo sapiens, UACC-62",2.31 µM
same,CC50,"UACC-62 [1]; Homo sapiens, UACC-62, read-out: LC50",96.2 µM
same,Percent Growth,UACC-62 [1]; Log10 Concentration −4.0,−50%
same,Percent Growth,UACC-62 [1]; Log10 Concentration −5.0,−23%
same,Percent Growth,UACC-62 [1]; Log10 Concentration −6.0,92%
same,Percent Growth,UACC-62 [1]; Log10 Concentration −7.0,91%
same,Percent Growth,UACC-62 [1]; Log10 Concentration −8.0,89%
same,TGI,UACC-62 [1]; UACC-62,6.29E−6
same,GI50,"OVCAR-4; Homo sapiens, OVCAR-4",0.52 µM
same,CC50,"OVCAR-4; Homo sapiens, OVCAR-4, read-out: LC50",4.19 µM
same,Percent Growth,OVCAR-4; Log10 Concentration −4.0,−100%
same,Percent Growth,OVCAR-4; Log10 Concentration −5.0,−100%
same,Percent Growth,OVCAR-4; Log10 Concentration −6.0,32%
same,Percent Growth,OVCAR-4; Log10 Concentration −7.0,94%
same,Percent Growth,OVCAR-4; Log10 Concentration −8.0,107%
same,TGI,OVCAR-4; OVCAR-4,1.76E−6
same,GI50,"OVCAR-5; Homo sapiens, OVCAR-5",2.18 µM
same,CC50,"OVCAR-5; Homo sapiens, OVCAR-5, read-out: LC50",9.06 µM
same,Percent Growth,OVCAR-5; Log10 Concentration −4.0,−58%
same,Percent Growth,OVCAR-5; Log10 Concentration −5.0,−57%
same,Percent Growth,OVCAR-5; Log10 Concentration −6.0,105%
same,Percent Growth,OVCAR-5; Log10 Concentration −7.0,94%
same,Percent Growth,OVCAR-5; Log10 Concentration −8.0,99%
same,TGI,OVCAR-5; OVCAR-5,4.44E−6
same,GI50,"OVCAR-8; Homo sapiens, OVCAR-8",0.859 µM
same,CC50,"OVCAR-8; Homo sapiens, OVCAR-8, read-out: LC50",> 100 µM
same,Percent Growth,OVCAR-8; Log10 Concentration −4.0,−38%
same,Percent Growth,OVCAR-8; Log10 Concentration −5.0,−43%
same,Percent Growth,OVCAR-8; Log10 Concentration −6.0,46%
same,Percent Growth,OVCAR-8; Log10 Concentration −7.0,102%
same,Percent Growth,OVCAR-8; Log10 Concentration −8.0,105%
same,TGI,OVCAR-8; OVCAR-8,3.28E−6
same,TGI,786-0; 786-0,1.16E−5
same,GI50,"786-0; Homo sapiens, 786-0",3.93 µM
same,CC50,"786-0; Homo sapiens, 786-0, read-out: LC50",52.7 µM
same,Percent Growth,786-0; Log10 Concentration −4.0,−71%
same,Percent Growth,786-0; Log10 Concentration −5.0,5%
same,Percent Growth,786-0; Log10 Concentration −6.0,116%
same,Percent Growth,786-0; Log10 Concentration −7.0,106%
same,Percent Growth,786-0; Log10 Concentration −8.0,105%
same,GI50,"MCF7; Homo sapiens, MCF7",1.24 µM
same,CC50,"MCF7; Homo sapiens, MCF7, read-out: LC50",7.72 µM
same,Percent Growth,MCF7; Log10 Concentration −4.0,−63%
same,Percent Growth,MCF7; Log10 Concentration −5.0,−64%
same,Percent Growth,MCF7; Log10 Concentration −6.0,62%
same,Percent Growth,MCF7; Log10 Concentration −7.0,77%
same,Percent Growth,MCF7; Log10 Concentration −8.0,88%
same,TGI,MCF7; MCF7,3.10E−6
same,GI50,"NCI/ADR-RES; Homo sapiens, NCI/ADR-RES",0.432 µM
same,CC50,"NCI/ADR-RES; Homo sapiens, NCI/ADR-RES, read-out: LC50",> 100 µM
same,Percent Growth,NCI/ADR-RES; Log10 Concentration −4.0,−17%
same,Percent Growth,NCI/ADR-RES; Log10 Concentration −5.0,−10%
same,Percent Growth,NCI/ADR-RES; Log10 Concentration −6.0,20%
same,Percent Growth,NCI/ADR-RES; Log10 Concentration −7.0,102%
same,Percent Growth,NCI/ADR-RES; Log10 Concentration −8.0,107%
same,TGI,NCI/ADR-RES; NCI/ADR-RES,4.80E−6
same,TGI,BT-549; BT-549,3.55E−5
same,GI50,"BT-549; Homo sapiens, BT-549",13.1 µM
same,CC50,"BT-549; Homo sapiens, BT-549, read-out: LC50",96.2 µM
same,Percent Growth,BT-549; Log10 Concentration −4.0,−52%
same,Percent Growth,BT-549; Log10 Concentration −5.0,64%
same,Percent Growth,BT-549; Log10 Concentration −6.0,126%
same,Percent Growth,BT-549; Log10 Concentration −7.0,102%
same,Percent Growth,BT-549; Log10 Concentration −8.0,92%
same,GI50,"T-47D [2]; Homo sapiens, T47D",0.375 µM
same,CC50,"T-47D [2]; Homo sapiens, T47D, read-out: LC50",7.79 µM
same,Percent Growth,T-47D [2]; Log10 Concentration −4.0,−60%
same,Percent Growth,T-47D [2]; Log10 Concentration −5.0,−59%
same,Percent Growth,T-47D [2]; Log10 Concentration −6.0,22%
same,Percent Growth,T-47D [2]; Log10 Concentration −7.0,88%
same,Percent Growth,T-47D [2]; Log10 Concentration −8.0,91%
same,TGI,T-47D [2]; T-47D,1.87E−6
"CCc1nc2ccc3c(c2[nH]1)C(=O)c1ccccc1C3=O [No. 4, 2-Ethyl-1(3)H-anthra[1,2-d]imidazole-6,11-dione]",inhibition effect on cancer cell line (Table 2 value),HOP-92,41.43
same,inhibition effect on cancer cell line (Table 2 value),T-47D [3],63.05
same,inhibition effect on cancer cell line (Table 2 value),MOLT-4,64.17
same,inhibition effect on cancer cell line (Table 2 value),ACHN,24.97
same,inhibition effect on cancer cell line (Table 2 value),UO-31,23.94
same,inhibition effect on cancer cell line (Table 2 value),SK-MEL-2,40.07
same,inhibition effect on cancer cell line (Table 2 value),UACC-257,39.69
same,inhibition effect on cancer cell line (Table 2 value),UACC-62 [4],51.35
